Data reported in patent publication US20230295201A1 (Gilead Sciences, Inc., priority 2020, published 2023).
Read-outs that look alike come from different tables or passages of the source.

Key:
Format in all cases: cell-based
RSV A2 = assay: RSV NHBE EC50 (RSV A2 antiviral assay in normal human bronchial epithelial cells); conditions: read-out: RSV NHBE EC50
DENV2 replicon = assay: DENV-2 Huh-7 Rep EC50 (replicon luminescence); conditions: read-out: DENV-2 Huh-7 Rep EC50
Outline: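 Huh-7 cells carrying a DENV2 replicon, 5,000 cells/well, were incubated with dosed compounds for 48 h at 37° C. EnduRen live-cell substrate was added 1.5 h before luminescence reading. EC50 came from dose-response against DMSO-only wells.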

HRV16 = HRV16 HELA EC50 (cytopathic effect in H1-HeLa cells)
Outline: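 H1-HeLa cells seeded one day before, given 3-fold serial compound dilutions in triplicate just prior to infection with pre-titrated virus. Incubated 96 h at 33 °C/5% CO2; protection from cytopathic effect read as viability by CellTiter-Glo luminescence, normalised to infected untreated (0%) and uninfected (100%) controls.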

RSV strain A2 = assay: RSV HEp-2 EC50 (infectious cytopathic cell protection assay); conditions: read-out: RSV HEp-2 EC50
Outline: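 HEp-2 cells mixed with titered RSV A2 at 50,000 cells/ml were added to plates holding 3-fold serial compound dilutions in DMSO, then incubated 4 days at 37° C. Cytoprotection was read as cell viability by CellTiter-Glo luminescence and converted to percent inhibition against 0% and 100% inhibition controls.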

[1] = human respiratory syncytial virus, NHBE, 96 h
[2] = Dengue virus, DENV2, Huh-7, 48 h
[3] = 96 h, read-out: HRV16 HELA EC50
[4] = human respiratory syncytial virus, HEp-2, 96 h
[5] = human respiratory syncytial virus, NHBE, 96 h, NHBE cells, RSV A2, 4 days
[6] = Dengue virus, DENV2, Huh-7, 48 h, Huh-7 replicon cells, 48 hours
[7] = 96 h, H1-HeLa cells, 33° C., read-out: HRV16 HELA EC50
[8] = human respiratory syncytial virus, HEp-2, 96 h, HEp-2 cells, RSV A2, 4 days
[9] = human respiratory syncytial virus, 96 h, NHBE cells, RSV A2, 4 days
[10] = H1-HeLa cells, 96 h, 33° C.; read-out: HRV16 HELA EC50
[11] = human respiratory syncytial virus, 96 h, HEp-2 cells, RSV A2, 4 days

| Compound | EC50 (DENV2 replicon; [2]) | EC50 (RSV A2; [5]) | EC50 (DENV2 replicon; [6]) | EC50 (HRV16; [7]) | EC50 (RSV strain A2; [8]) | EC50 (HRV16; [10]) | other results |
| --- | --- | --- | --- | --- | --- | --- | --- |
| CCOC(=O)c1ccccc1OP(=O)(OC[C@@]1(C#N)O[C@@H](c2ccc3c(N)ncnn23)[C@H](O)[C@@H]1O)Oc1ccccc1C(=O)OCC [Example 209, ((2R,3S,4R,5S)-5-(4-aminopyrrolo[2,1-f][1,2,4]triazin-7-yl)-2-cyano-3,4-dihydroxytetrahydrofuran-2-yl)methyl bis-2-ethylbenzoate phosphate] | > 50 µM | – | – | – | – | – | EC50 (RSV A2; [1]): > 5 µM; EC50 (HRV16; [3]): 16.7 µM; EC50 (RSV strain A2; [4]): 1.46 µM |
| CCOC(=O)C1CCCN1P(=O)(OC[C@@]1(C#N)O[C@@H](c2ccc3c(N)ncnn23)[C@H](O)[C@@H]1O)Oc1ccccc1 (stereo in doubt) [Example 117, (2R)-ethyl 1-((((2R,3S,4R,5S)-5-(4-aminopyrrolo[2,1-f][1,2,4]triazin-7-yl)-2-cyano-3,4-dihydroxytetrahydrofuran-2-yl)methoxy)(phenoxy)phosphoryl)pyrrolidine-2-carboxylate] | > 100 µM | – | – | – | – | – | EC50 (RSV A2; [1]): > 5 µM; EC50 (HRV16; [3]): > 100 µM; EC50 (RSV strain A2; [4]): > 100 µM |
| CCC(CC)COC(=O)[C@H](CCCCNC(=O)OCc1ccccc1)NP(=O)(OC[C@@]1(C#N)O[C@@H](c2ccc3c(N)ncnn23)[C@H](O)[C@@H]1O)Oc1ccccc1 (stereo partly drawn) [Example 79, 2-ethylbutyl N2-((((2R,3S,4R,5S)-5-(4-aminopyrrolo[2,1-f][1,2,4]triazin-7-yl)-2-cyano-3,4-dihydroxytetrahydrofuran-2-yl)methoxy)(phenoxy)phosphoryl)-N6-((benzyloxy)carbonyl)-L-lysinate] | – | > 5 µM | 40.2 µM | > 34.8 µM | > 50 µM | – | – |
| CC(C)C[C@H](NP(=O)(OC[C@@]1(C#N)O[C@@H](c2ccc3c(N)ncnn23)[C@H](O)[C@@H]1O)Oc1ccccc1)C(=O)OCC1CC1 (mixture of isomers) [Example 130, (2S)-cyclopropylmethyl 2-(((((2R,3S,4R,5S)-5-(4-aminopyrrolo[2,1-f][1,2,4]triazin-7-yl)-2-cyano-3,4-dihydroxytetrahydrofuran-2-yl)methoxy)(phenoxy)phosphoryl)amino)-4-methylpentanoate] | – | 0.438 µM | > 100 µM | 7.3 µM | 3.59 µM | – | – |
| C[C@H](NP(=O)(OCC(F)(F)F)OC[C@@]1(C#N)O[C@@H](c2ccc3c(N)ncnn23)[C@H](O)[C@@H]1O)C(=O)OC1CCCCC1 (stereo partly drawn) [Example 201, cyclohexyl ((((2R,3S,4R,5S)-5-(4-aminopyrrolo[2,1-f][1,2,4]triazin-7-yl)-2-cyano-3,4-dihydroxytetrahydrofuran-2-yl)methoxy)(2,2,2-trifluoroethoxy)phosphoryl)-L-alaninate] | > 50 µM | – | – | – | – | 10.3 µM | EC50 (RSV A2; [9]): 3.1 µM; EC50 (RSV strain A2; [11]): 2.52 µM |
| COC(=O)[C@H](C)NP(=O)(N[C@@H](C)C(=O)OC)OC[C@@]1(C#N)O[C@@H](c2ccc3c(N)ncnn23)[C@H](O)[C@@H]1O [Example 38] | > 50 µM | – | – | – | – | 20.9 µM | EC50 (RSV A2; [9]): 3.98 µM; EC50 (RSV strain A2; [11]): 3.51 µM |
| CCCCCCCCCCCCCCCCCCOCCOP(=O)(O)OC[C@@]1(C#N)O[C@@H](c2ccc3c(N)ncnn23)[C@H](O)[C@@H]1O [Example 148, ((2R,3S,4R,5S)-5-(4-aminopyrrolo[2,1-f][1,2,4]triazin-7-yl)-2-cyano-3,4-dihydroxytetrahydrofuran-2-yl)methyl (2-(octadecyloxy)ethyl) hydrogen phosphate] | > 50 µM | – | – | – | – | 36.9 µM | EC50 (RSV A2; [9]): 0.32 µM; EC50 (RSV strain A2; [11]): 2.67 µM |
| CCCCOC(=O)[C@H](C)NP(=O)(N[C@@H](C)C(=O)OCCCC)OC[C@@]1(C#N)O[C@@H](c2ccc3c(N)ncnn23)[C@H](O)[C@@H]1O [Example 218] | > 50 µM | – | – | – | – | 11.3 µM | EC50 (RSV A2; [9]): 0.28 µM; EC50 (RSV strain A2; [11]): 1.16 µM |
| C[C@H](NP(=O)(OC[C@@]1(C#N)O[C@@H](c2ccc3c(N)ncnn23)[C@H](O)[C@@H]1O)Oc1ccccc1)C(=O)OC1CCOCC1 (single isomer, unassigned) [Example 57] | – | – | – | – | – | 5.48 µM | EC50 (RSV A2; NHBE cells, RSV A2, 4 days): > 4.18 µM; EC50 (DENV2 replicon; Huh-7 replicon cells, 48 hours): > 50 µM; EC50 (RSV strain A2; HEp-2 cells, RSV A2, 4 days): 1.49 µM |
| CCCCCCCCCCCCCCCCOCCCNP(=O)(OC[C@@]1(C#N)O[C@@H](c2ccc3c(N)ncnn23)[C@H](O)[C@@H]1O)Oc1ccccc1 (stereo partly drawn) [Example 187, ((2R,3S,4R,5S)-5-(4-aminopyrrolo[2,1-f][1,2,4]triazin-7-yl)-2-cyano-3,4-dihydroxytetrahydrofuran-2-yl)methyl phenyl (3-(hexadecyloxy)propyl)phosphoramidate] | – | > 5 µM | 9.35 µM | 20.6 µM | 1.49 µM | – | – |
| C[C@H](NP(=O)(OC[C@@]1(C#N)O[C@@H](c2ccc3c(N)ncnn23)[C@H](O)[C@@H]1O)Oc1ccccc1)C(=O)O[C@H]1CCCC[C@@H]1C (mixture of isomers) [Example 155, trans-2-methylcyclohexyl ((((2R,3S,4R,5S)-5-(4-aminopyrrolo[2,1-f][1,2,4]triazin-7-yl)-2-cyano-3,4-dihydroxytetrahydrofuran-2-yl)methoxy)(phenoxy)phosphoryl)-L-alaninate] | – | 1.58 µM | 84.4 µM | 4.2 µM | 4.32 µM | – | – |
| CC(C)OC(=O)[C@H](Cc1ccccc1)NP(=O)(OC[C@@]1(C#N)O[C@@H](c2ccc3c(N)ncnn23)[C@H](O)[C@@H]1O)Oc1ccccc1 (stereo partly drawn) [Example 80, (2S)-isopropyl 2-(((((2R,3S,4R,5S)-5-(4-aminopyrrolo[2,1-f][1,2,4]triazin-7-yl)-2-cyano-3,4-dihydroxytetrahydrofuran-2-yl)methoxy)(phenoxy)phosphoryl)amino)-3-phenylpropanoate] | – | 4.7 µM | > 50 µM | 8.96 µM | 3.83 µM | – | – |
| CC(C)C(=O)Nc1ncnn2c([C@@H]3O[C@](C#N)(CO[P@@](=O)(N[C@@H](C)C(=O)OC4CCCCC4)Oc4ccccc4)[C@@H](O)[C@H]3O)ccc12 [Example 235, cyclohexyl ((S)-(((2R,3S,4R,5S)-2-cyano-3,4-dihydroxy-5-(4-isobutyramidopyrrolo[2,1-f][1,2,4]triazin-7-yl)tetrahydrofuran-2-yl)methoxy)(phenoxy)phosphoryl)-L-alaninate] | – | 0.51 µM | 3.96 µM | 1.1 µM | 0.114 µM | – | – |
| C[C@H](NP(=O)(OC[C@@]1(C#N)O[C@@H](c2ccc3c(N)ncnn23)[C@H](O)[C@@H]1O)Oc1ccccc1)C(=O)OCCN(C)C (stereo partly drawn) [Example 162, 2-(dimethylamino)ethyl ((((2R,3S,4R,5S)-5-(4-aminopyrrolo[2,1-f][1,2,4]triazin-7-yl)-2-cyano-3,4-dihydroxytetrahydrofuran-2-yl)methoxy)(phenoxy)phosphoryl)-L-alaninate] | – | > 5 µM | 13.8 µM | 12.8 µM | 6.05 µM | – | – |
| CC[C@H](NP(=O)(OC[C@@]1(C#N)O[C@@H](c2ccc3c(N)ncnn23)[C@H](O)[C@@H]1O)Oc1ccccc1)C(=O)OC1CCCC1 (single isomer, unassigned) [Example 111] | – | – | > 50 µM | 25.3 µM | – | – | EC50 (RSV A2; NHBE cells, RSV A2, 4 days): > 1.48 µM; EC50 (RSV strain A2; HEp-2 cells, RSV A2, 4 days): 3.97 µM |
| N#C[C@]1(COP(=O)(NCCOC(=O)C2CCCCC2)Oc2ccccc2)O[C@@H](c2ccc3c(N)ncnn23)[C@H](O)[C@@H]1O (stereo partly drawn) [Example 166, 2-(((((2R,3S,4R,5S)-5-(4-aminopyrrolo[2,1-f][1,2,4]triazin-7-yl)-2-cyano-3,4-dihydroxytetrahydrofuran-2-yl)methoxy)(phenoxy)phosphoryl)amino)ethyl cyclohexane carboxylate] | – | 0.624 µM | 22.1 µM | 0.336 µM | 0.083 µM | – | – |
